Data: ChEMBL document CHEMBL2094260, “Malaria Box Tuberculosis Screening Data”

Each compound was assayed on Mycobacterium tuberculosis (assay: MMV: Screen against Mtb, single point, non replicating, at 25uM).
Assay type: functional
Compound `CCc1c(C)c(=N)c2ccccc2n1C` has an inhibition at 25 µM of 2.08%. Compound `CCOc1cc(Br)c(C(C)NC(=O)c2cccc(OC)c2)cc1OCC` (stereo not given) has an inhibition at 25 µM of 5.22%. `Cc1cc(NC(=O)C2c3ccccc3C(=O)N(CC(C)C)C2c2cccs2)no1` (stereo not given) was tested, and the inhibition at 25 µM was 13.1%. `COc1cc(OC)c(N(C)C(=O)c2cc3c(s2)-c2ccccc2S(=O)(=O)C3)cc1Cl` showed an inhibition at 25 µM of 6.97%. In the case of `COc1cc(C(=O)Nc2ccc(-c3nc4ccccc4[nH]3)cc2)cc(OC)c1OC`, the inhibition at 25 µM is reported as 19.1%. `Cc1ccc(Cn2c(N3CCC(C(=O)NCc4cccs4)CC3)nc3ccccc32)cc1` gave an inhibition at 25 µM of 5.22%. In the case of `COc1cccc(NC(=O)Cn2c(C)c(C#N)c3ccccc32)c1`, the inhibition at 25 µM is reported as 8.89%. Work on `CCOc1ccc(-c2nonc2NC(=O)c2cccc(C)c2)cc1OCC` yielded an inhibition at 25 µM of 9.24%. In the case of `c1ccc(Cn2c(N=Nc3c(Nc4ccccc4)ccc4ccccc34)nc3ccccc32)cc1`, the inhibition at 25 µM is reported as 18.7%. `CCOc1ccc(CN2CCN(CC(O)COc3ccc(OCC(O)CN4CCN(Cc5ccc(OCC)cc5)CC4)cc3)CC2)cc1` (stereo not given) showed an inhibition at 25 µM of 17.5%. For `CN(C)c1ccc(N2C(N)=NC(N)=NC2(C)C)cc1`, the inhibition at 25 µM was 1.21%. With `CN1CCN(c2ncnc3c2[nH]c2ccc(Cl)cc23)CC1` the inhibition at 25 µM was 1.91%. For `Cc1ccccc1OCCSc1nc2ccc(NC(=O)c3cccs3)cc2s1`, the inhibition at 25 µM was 16.4%. Work on `Cc1ccc(-c2cc3nc4c(c(O)n3n2)CCCC4)cc1` yielded an inhibition at 25 µM of 21.5%. In the case of `CN1C=C(c2ccc3ccccc3n2)C(c2c[nH]c3ccccc23)c2ccccc21` (stereo not given), the inhibition at 25 µM is reported as 20.1%. With `COc1ccc2c(c1OC)C(=O)N1c3ccccc3N=C(c3ccc(C)cc3)CC21` (stereo not given) the inhibition at 25 µM was 15.2%. With `CCCCc1c(CCC)c(=N)c2ccccc2n1C` the inhibition at 25 µM was -5.96%. For `COCCNC(=O)c1ccc(OC2CCN(Cc3ccc(F)c(F)c3)CC2)c(Cl)c1`, the inhibition at 25 µM was 14.1%. Work on `N=c1c2ccccc2nnn1-c1cccc(C(F)(F)F)c1` yielded an inhibition at 25 µM of -4.19%. With `CCOc1ccccc1NC(=O)CN1CCN(C(=O)c2ccco2)CC1` the inhibition at 25 µM was -0.186%. `CCN1CCN(Cc2ccc(NC(=O)c3cc4ccc5cccnc5c4[nH]3)cc2)CC1` was tested, and the inhibition at 25 µM was 3.13%. `CC(C)(C)c1ccc2c(c1)CN(Cc1ccc(Cl)cc1)CO2` gave an inhibition at 25 µM of 41.2%. With `CCCc1c(C)nc2ccc(Br)cc2c1O` the inhibition at 25 µM was 12.5%. With `Cc1ccc(C2CC(C(F)(F)F)n3nc(C(=O)N4CCN(C(c5ccccc5)c5ccccc5)CC4)cc3N2)cc1` (stereo not given) the inhibition at 25 µM was 10.5%. Compound `Cc1ccc(N2C3c4ccccc4N(S(=O)(=O)c4ccc(C)cc4)C2c2ccccc2N3S(=O)(=O)c2ccc(C)cc2)cc1` has an inhibition at 25 µM of 18%. `CCOc1cc2c(cc1OCC)C(c1cc(Cl)c(O)c(OCC)c1)NCC2` (stereo not given) was tested, and the inhibition at 25 µM was -14%. `O=C(NCC1Cc2cccc(-c3ccncc3)c2O1)c1csc2c1CCCC2` (stereo not given) was tested, and the inhibition at 25 µM was 5.92%. Work on `CNCCCNc1ccnc2cc(Cl)ccc12` yielded an inhibition at 25 µM of 5.05%. `CCOc1ccc(Nc2c3ccccc3nc3ccccc23)cc1` gave an inhibition at 25 µM of 15.9%. In the case of `CCOC(=O)c1c(NC(=O)c2ccccc2)sc2c(O)c(CN(CC)CC)ccc12`, the inhibition at 25 µM is reported as 16%. Compound `O=C(NCc1ccco1)C1CCN(S(=O)(=O)c2ccc(Cl)cc2)CC1` has an inhibition at 25 µM of 12.4%. `c1ccc2c(NCCc3c[nH]c4ccccc34)c3ccccc3nc2c1` was tested, and the inhibition at 25 µM was 17.8%. Work on `CC1CCCCN1CCCNC(=O)c1ccc2c(c1)sc1nc(-c3ccc(F)cc3)cn12` (stereo not given) yielded an inhibition at 25 µM of 9.76%. With `CN1CCN(c2nc(Nc3ccc(O)cc3)nc3ccccc23)CC1` the inhibition at 25 µM was 6.46%. In the case of `CCCCOc1ccc(C(=O)Nc2cc(C)on2)cc1`, the inhibition at 25 µM is reported as 15%. With `CCN(CC)CCNc1ncnc2c1[nH]c1ccc(Br)cc12` the inhibition at 25 µM was 13.4%. `Oc1c(CN2CCN(c3ccccc3F)CC2)cc(Br)c2cccnc12` was tested, and the inhibition at 25 µM was 30.2%. In the case of `COc1cc(SC)ccc1C(=O)N1CCCC(C)C1` (stereo not given), the inhibition at 25 µM is reported as 8.89%. For `COc1ccc(NC(=O)C2c3ccccc3C(=O)N(CC(C)C)C2c2cccs2)cc1Cl` (stereo not given), the inhibition at 25 µM was 22.2%. Compound `O=C(NC1CCCC1)c1ccc(N2CCC(NCc3cccc(C(F)(F)F)c3)CC2)cc1` has an inhibition at 25 µM of 3.83%.

What follows are compounds tested on Mycobacterium tuberculosis (assay: MMV: Screen against Mtb, single point, replicating, at 25uM).
Assay type: functional
With `CCc1c(C)c(=N)c2ccccc2n1C` the inhibition at 25 µM was 4.16%. `CCOc1cc(Br)c(C(C)NC(=O)c2cccc(OC)c2)cc1OCC` (stereo not given) gave an inhibition at 25 µM of 11.9%. For `Cc1cc(NC(=O)C2c3ccccc3C(=O)N(CC(C)C)C2c2cccs2)no1` (stereo not given), the inhibition at 25 µM was 12.2%. With `COc1cc(OC)c(N(C)C(=O)c2cc3c(s2)-c2ccccc2S(=O)(=O)C3)cc1Cl` the inhibition at 25 µM was 38%. `COc1cc(C(=O)Nc2ccc(-c3nc4ccccc4[nH]3)cc2)cc(OC)c1OC` showed an inhibition at 25 µM of 27%. `Cc1ccc(Cn2c(N3CCC(C(=O)NCc4cccs4)CC3)nc3ccccc32)cc1` showed an inhibition at 25 µM of 44.4%. `COc1cccc(NC(=O)Cn2c(C)c(C#N)c3ccccc32)c1` showed an inhibition at 25 µM of 7.96%. In the case of `CCOc1ccc(-c2nonc2NC(=O)c2cccc(C)c2)cc1OCC`, the inhibition at 25 µM is reported as 2.34%. With `c1ccc(Cn2c(N=Nc3c(Nc4ccccc4)ccc4ccccc34)nc3ccccc32)cc1` the inhibition at 25 µM was 14.9%. `CCOc1ccc(CN2CCN(CC(O)COc3ccc(OCC(O)CN4CCN(Cc5ccc(OCC)cc5)CC4)cc3)CC2)cc1` (stereo not given) showed an inhibition at 25 µM of 13.2%. `CN(C)c1ccc(N2C(N)=NC(N)=NC2(C)C)cc1` showed an inhibition at 25 µM of 2.64%. Compound `CN1CCN(c2ncnc3c2[nH]c2ccc(Cl)cc23)CC1` has an inhibition at 25 µM of 23.9%. For `Cc1ccccc1OCCSc1nc2ccc(NC(=O)c3cccs3)cc2s1`, the inhibition at 25 µM was 51.3%. `Cc1ccc(-c2cc3nc4c(c(O)n3n2)CCCC4)cc1` showed an inhibition at 25 µM of 14%. Work on `CN1C=C(c2ccc3ccccc3n2)C(c2c[nH]c3ccccc23)c2ccccc21` (stereo not given) yielded an inhibition at 25 µM of 19.7%. With `COc1ccc2c(c1OC)C(=O)N1c3ccccc3N=C(c3ccc(C)cc3)CC21` (stereo not given) the inhibition at 25 µM was 4.94%. `CCCCc1c(CCC)c(=N)c2ccccc2n1C` was tested, and the inhibition at 25 µM was 6.04%. With `COCCNC(=O)c1ccc(OC2CCN(Cc3ccc(F)c(F)c3)CC2)c(Cl)c1` the inhibition at 25 µM was 12.7%. `N=c1c2ccccc2nnn1-c1cccc(C(F)(F)F)c1` was tested, and the inhibition at 25 µM was 7.29%. `CCOc1ccccc1NC(=O)CN1CCN(C(=O)c2ccco2)CC1` showed an inhibition at 25 µM of 23.1%. `CCN1CCN(Cc2ccc(NC(=O)c3cc4ccc5cccnc5c4[nH]3)cc2)CC1` was tested, and the inhibition at 25 µM was 18.3%. With `CC(C)(C)c1ccc2c(c1)CN(Cc1ccc(Cl)cc1)CO2` the inhibition at 25 µM was 48.4%. In the case of `CCCc1c(C)nc2ccc(Br)cc2c1O`, the inhibition at 25 µM is reported as 13.7%. `Cc1ccc(C2CC(C(F)(F)F)n3nc(C(=O)N4CCN(C(c5ccccc5)c5ccccc5)CC4)cc3N2)cc1` (stereo not given) was tested, and the inhibition at 25 µM was 14.3%. `Cc1ccc(N2C3c4ccccc4N(S(=O)(=O)c4ccc(C)cc4)C2c2ccccc2N3S(=O)(=O)c2ccc(C)cc2)cc1` was tested, and the inhibition at 25 µM was 4.16%. Compound `CCOc1cc2c(cc1OCC)C(c1cc(Cl)c(O)c(OCC)c1)NCC2` (stereo not given) has an inhibition at 25 µM of -12.2%. Compound `O=C(NCC1Cc2cccc(-c3ccncc3)c2O1)c1csc2c1CCCC2` (stereo not given) has an inhibition at 25 µM of 14.2%. `CNCCCNc1ccnc2cc(Cl)ccc12` showed an inhibition at 25 µM of 8.11%. `CCOc1ccc(Nc2c3ccccc3nc3ccccc23)cc1` showed an inhibition at 25 µM of 51.8%. `CCOC(=O)c1c(NC(=O)c2ccccc2)sc2c(O)c(CN(CC)CC)ccc12` gave an inhibition at 25 µM of 51.8%. With `O=C(NCc1ccco1)C1CCN(S(=O)(=O)c2ccc(Cl)cc2)CC1` the inhibition at 25 µM was 46.4%. `c1ccc2c(NCCc3c[nH]c4ccccc34)c3ccccc3nc2c1` gave an inhibition at 25 µM of 47.1%. Compound `CC1CCCCN1CCCNC(=O)c1ccc2c(c1)sc1nc(-c3ccc(F)cc3)cn12` (stereo not given) has an inhibition at 25 µM of 33.2%. `CN1CCN(c2nc(Nc3ccc(O)cc3)nc3ccccc23)CC1` was tested, and the inhibition at 25 µM was 8.7%. With `CCCCOc1ccc(C(=O)Nc2cc(C)on2)cc1` the inhibition at 25 µM was 23.1%. `CCN(CC)CCNc1ncnc2c1[nH]c1ccc(Br)cc12` gave an inhibition at 25 µM of 20.6%. For `Oc1c(CN2CCN(c3ccccc3F)CC2)cc(Br)c2cccnc12`, the inhibition at 25 µM was 21.8%. `COc1cc(SC)ccc1C(=O)N1CCCC(C)C1` (stereo not given) gave an inhibition at 25 µM of 17.4%. Work on `COc1ccc(NC(=O)C2c3ccccc3C(=O)N(CC(C)C)C2c2cccs2)cc1Cl` (stereo not given) yielded an inhibition at 25 µM of -1.46%. With `O=C(NC1CCCC1)c1ccc(N2CCC(NCc3cccc(C(F)(F)F)c3)CC2)cc1` the inhibition at 25 µM was 22.1%.
